Usually IC50 stands for the midpoint of a concentration-inhibition curve. High values mean weaker potency, low ones greater potency.

In this experiment the target is KirBac1.1 (Burkholderia pseudomallei, UniProt P83698). Nature of the experiment: biochemical.
Chain of KirBac1.1 (P83698 1-333): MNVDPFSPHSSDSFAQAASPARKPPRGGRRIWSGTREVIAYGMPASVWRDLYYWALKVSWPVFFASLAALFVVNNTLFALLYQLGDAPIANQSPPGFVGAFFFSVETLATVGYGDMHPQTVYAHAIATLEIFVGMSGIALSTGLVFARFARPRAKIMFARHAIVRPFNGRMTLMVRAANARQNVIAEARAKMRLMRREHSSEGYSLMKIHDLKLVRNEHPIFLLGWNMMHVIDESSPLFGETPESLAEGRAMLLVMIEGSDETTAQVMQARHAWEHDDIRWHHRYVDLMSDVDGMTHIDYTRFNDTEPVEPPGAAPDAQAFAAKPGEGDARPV

In turn, `NCCCNCCCCNCCCN` [spermine] displayed an IC50 of 800 µM.

For the origin of these results see publication PMC2654083 (The Journal of General Physiology, 2009).
